Measurements as given in ChEMBL document CHEMBL1138746, “Indolebutylamines as selective 5-HT(1A) agonists” (J Med Chem, 2004).
pIC50: −log10 of the molar value.

Columns and labels:
[1] = biological target: T1, 5-hydroxytryptamine receptor 1A (Rattus norvegicus, UniProt P19327); experiment: Inhibition of 8-OH DPAT bindign to rat hydroxytryptamine 1A receptor in hippocampal membranes
T1 sequence (P19327 whole entry): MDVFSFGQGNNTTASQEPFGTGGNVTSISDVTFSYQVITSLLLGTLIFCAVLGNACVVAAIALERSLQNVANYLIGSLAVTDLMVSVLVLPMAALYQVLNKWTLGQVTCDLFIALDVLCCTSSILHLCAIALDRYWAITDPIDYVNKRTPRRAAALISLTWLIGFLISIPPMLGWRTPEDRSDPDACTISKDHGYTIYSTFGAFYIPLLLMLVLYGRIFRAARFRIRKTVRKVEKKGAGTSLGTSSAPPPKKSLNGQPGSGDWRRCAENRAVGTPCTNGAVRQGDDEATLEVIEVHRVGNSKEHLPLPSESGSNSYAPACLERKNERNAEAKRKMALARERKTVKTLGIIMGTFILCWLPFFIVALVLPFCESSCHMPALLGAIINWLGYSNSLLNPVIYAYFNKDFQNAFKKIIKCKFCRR

[2] = biological target: T2, Adrenergic receptor alpha-2 (Homo sapiens, UniProt P08913+P18825+P18089); experiment: Inhibition of Alpha-2 adrenergic receptor; assay type: protein assay
T2 sequence (P08913 whole entry): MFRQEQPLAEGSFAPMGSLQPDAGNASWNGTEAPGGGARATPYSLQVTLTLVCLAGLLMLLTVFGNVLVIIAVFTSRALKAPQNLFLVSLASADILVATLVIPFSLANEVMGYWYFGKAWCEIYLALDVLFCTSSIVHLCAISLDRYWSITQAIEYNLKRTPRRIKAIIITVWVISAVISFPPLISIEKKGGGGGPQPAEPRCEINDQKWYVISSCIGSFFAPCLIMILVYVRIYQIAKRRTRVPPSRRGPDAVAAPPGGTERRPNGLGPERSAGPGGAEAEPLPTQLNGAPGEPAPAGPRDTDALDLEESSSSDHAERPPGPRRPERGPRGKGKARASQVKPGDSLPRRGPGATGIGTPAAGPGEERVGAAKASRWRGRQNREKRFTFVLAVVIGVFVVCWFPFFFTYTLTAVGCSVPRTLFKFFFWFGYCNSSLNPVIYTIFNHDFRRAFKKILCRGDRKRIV
T2 sequence (P18825 whole entry): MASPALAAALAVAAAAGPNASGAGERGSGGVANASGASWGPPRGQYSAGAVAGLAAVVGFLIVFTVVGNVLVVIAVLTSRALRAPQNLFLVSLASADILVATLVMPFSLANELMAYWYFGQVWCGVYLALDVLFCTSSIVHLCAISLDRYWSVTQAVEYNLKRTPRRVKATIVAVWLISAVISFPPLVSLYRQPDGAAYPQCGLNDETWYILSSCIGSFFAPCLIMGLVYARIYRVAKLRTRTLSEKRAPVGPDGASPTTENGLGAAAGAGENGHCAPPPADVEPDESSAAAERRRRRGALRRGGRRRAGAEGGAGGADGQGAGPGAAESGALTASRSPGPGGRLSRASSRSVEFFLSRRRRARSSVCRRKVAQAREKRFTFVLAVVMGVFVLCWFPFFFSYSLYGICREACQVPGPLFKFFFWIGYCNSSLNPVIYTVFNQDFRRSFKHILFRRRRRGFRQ
T2 sequence (P18089 whole entry): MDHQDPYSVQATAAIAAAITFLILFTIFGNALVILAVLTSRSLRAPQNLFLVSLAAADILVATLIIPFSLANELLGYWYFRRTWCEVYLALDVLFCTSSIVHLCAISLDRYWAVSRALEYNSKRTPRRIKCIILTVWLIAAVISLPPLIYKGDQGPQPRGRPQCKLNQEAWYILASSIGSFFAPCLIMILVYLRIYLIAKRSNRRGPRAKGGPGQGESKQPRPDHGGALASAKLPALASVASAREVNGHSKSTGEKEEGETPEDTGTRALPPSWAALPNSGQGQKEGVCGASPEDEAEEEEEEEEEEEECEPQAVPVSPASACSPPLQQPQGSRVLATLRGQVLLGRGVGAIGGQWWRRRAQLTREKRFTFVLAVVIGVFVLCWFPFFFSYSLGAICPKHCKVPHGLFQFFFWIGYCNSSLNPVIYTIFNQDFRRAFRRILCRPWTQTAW

[3] = Inhibition of Histamine H1 receptor

pIC50 [1]: 8.09 | IC50 [2]: 1000 nM | pIC50 [3]: 7.62
SMILES: O=C1c2ccccc2S(=O)(=O)N1CCCCN1CCN(c2ncccn2)CC1 [IPSAPIRONE]
